Patent US20240325402A1, “MOMELOTINIB COMBINATION THERAPY” (GlaxoSmithKline LLC, priority 2021, published 2024)
pIC50: −log10 of the molar value. Counter-ions that a name gives are not always drawn. Like-named read-outs stand apart in the source and are kept apart here.

Test system: NF-kB reporter activity
Experiment: NF-kB luciferase reporter assay (TNFa-stimulated NF-kB Reporter-HEK293 cells)
Type: cell-based, human
Details: for inhibition at 10 µM / pIC50 / Percent Inhibition at 10 uM: NF-kB Reporter-HEK293 cells; for inhibition at 10 µM / Percent Inhibition at 10 uM: compound at 10 uM; for inhibition at 10 µM: read-out: Percent Inhibition at 10 uM
Experimental: NF-kB Reporter-HEK293 cell line (BPS Bioscience #60650); MEM medium (Hyclone #SH30024.01); Fetal bovine serum (Life Technologies #10082147); Non-essential amino acid (Corning 25-025-C1); Na-pyruvate (Hyclone #SH30239.01); Pen-strep (Hyclone #SV30010); Hygromycin B (Invitrogen/Thermo-Fisher #10687010); IKK-16 dihydrochloride—NF-kB inhibitor (Sigma SML1138); TNFa (R&D Systems 210-TA); ONE-Step luciferase assay system (BPS Bioscience #60690).
Cell culture. Cells were cultured in MEM medium with 10% FBS, 1% non-essential amino acid, 1 mM Na-pyruvate, 1% Pen-strep, and 50 μg/mL Hygromycin B.
To perform the NF-kB luciferase reporter assay, NF-kB Reporter—HEK293 cells were seeded at 30,000 cells per well into white clear-bottom 96-well microplate in 60 μL of assay medium (growth medium without Hygromycin B). Cells were incubated at 37° C. and 5% CO2 for 5 hours to allow them attach. A serial dilution of compounds was prepared in assay medium without Hygromycin B. Thirty μL of diluted compounds was added to the treatment wells at the end of the day. Thirty μL of assay medium with the same concentration of DMSO without compound was added to the control wells. One hundred μL of assay medium with DMSO was added to cell-free control wells for determining background luminescence. Cells were incubated at 37° C. and 5% CO2 overnight.
The next day ten μL of diluted human TNFa in assay medium was added to wells (final [TNFa]=10 ng/mL). Ten μL of assay medium was added to unstimulated control wells. Cells were incubated at 37° C. and 5% CO2 for 5-6 hours. After treatment, cells were lysed and the luciferase assay was performed using ONE-Step luciferase assay system: add 100 μL of One-Step Luciferase reagent per well and rock at room temperature for ˜30 minutes. Luminescence was measured using a luminometer (BioTek Synergy™ 2 microplate reader).

[1] = Homo sapiens, TNFa 10 ng/mL, curve fit with top and bottom locked, read-out: IC50 Lock top and bottom of curve
[2] = Homo sapiens, overnight compound, TNFa 10 ng/mL 5-6 hours, luciferase, read-out: IC50 against NF-kB reporter activity
[3] = TNFa 10 ng/mL, curve fit with top and bottom locked, read-out: IC50 Lock top and bottom of curve
[4] = overnight compound, TNFa 10 ng/mL 5-6 hours, luciferase, read-out: IC50 against NF-kB reporter activity

| pIC50 [1] | pIC50 [2] | SMILES | inhibition at 10 µM (Homo sapiens, TNFa 10 ng/mL) | Percent Inhibition at 10 uM (TNFa 10 ng/mL) | pIC50 [3] | pIC50 [4] | downregulation of NF-κB signaling in a luciferase assay (cellular data, compounds ran in parallel) |
| --- | --- | --- | --- | --- | --- | --- | --- |
| 6.27 | 6.57 | Cc1noc2c1-c1ccccc1C(c1ccc(Cl)cc1)=N[C@H]2CC(N)=O [CPI-0610] | 78% | – | – | – | – |
| – | – | Cc1cnc(Nc2ccc(OCCN3CCCC3)cc2)nc1Nc1cccc(S(=O)(=O)NC(C)(C)C)c1 [Fedratinib (TG101348)] | – | 99% | 5.54 | 5.21 | – |
| – | – | O=C(c1ccc(Nc2nccc(-c3cc4ccccc4s3)n2)cc1)N1CCC(N2CCCC2)CC1 [IKK-16 dihydrochloride] | – | 88% | 6.59 | 6.48 | – |
| 6.37 | 6.33 | N#CCNC(=O)c1ccc(-c2ccnc(Nc3ccc(N4CCOCC4)cc3)n2)cc1 [MMB/Momelotinib, N-(cyanomethyl)-4-(2-(4-morpholinophenylamino)pyrimidin-4-yl)benzamide] | 100% | – | – | – | downregulates NF-κB signaling |
| 5.92 | 5.85 | C1=C/COCc2cc(ccc2OCCN2CCCC2)Nc2nccc(n2)-c2cccc(c2)COC/1 [Pacritinib (SB1518)] | 100% | – | – | – | – |
| – | – | N#CC[C@H](C1CCCC1)n1cc(-c2ncnc3[nH]ccc23)cn1 [Ruxolitinib (INCB018424)] | -11% | – | – | – | – |
